Source: patent US20210261636A1, “NEOANTIGENS EXPRESSED IN MULTIPLE MYELOMA AND THEIR USES” (Janssen Biotech, Inc., priority 2020, published 2021)

Experiments:
CD8+ T cells = experiment: Exogenous autologous healthy donor restimulation assay, TNFα and IFNγ production by CD8+ T cells; format: cell-based, human; parameters: Frequency (TNFα+ IFNγ+ CD8 T cells): unit not given here; details: for Fold change (CD8+) vs. DMSO: maximum CD8+ T-cell response (TNFα and IFNγ); for Fold change (CD8+) vs. DMSO / Frequency (TNFα+ IFNγ+ CD8 T cells): donor independent, peptide pool 10 μg/mL, healthy donors; for Frequency (TNFα+ IFNγ+ CD8 T cells): maximum CD8+ T-cell response; for Immunogenic (yes/no): positive if CD8+ and/or CD4+ double positive TNFα/IFNγ frequency >=3-fold over DMSO and at least 0.01%
Outline: (§1)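 CD1c+ DCs from healthy donor PBMCs pulsed 2 h with 15-mer overlapping neoantigen peptide pools (10 μg/mL), irradiated 50 Gy, then co-cultured 12 days with autologous CD3+ T cells plus IL-15/IL-2. Restimulated day 11 with same pools, overnight with protein inhibitor; intracellular TNFα/IFNγ by flow. Positive: ≥3-fold over DMSO and ≥0.01% double-positive.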

CD4+ T cells = experiment: Exogenous autologous healthy donor restimulation assay, TNFα and IFNγ production by CD4+ T cells; format: cell-based, human; parameters: Frequency (TNFα+ IFNγ+ CD4 T cells): unit not given here; details: donor independent, peptide pool 10 μg/mL, healthy donors; for Fold change (CD4+) vs. DMSO: maximum CD4+ T-cell response (TNFα and IFNγ); for Frequency (TNFα+ IFNγ+ CD4 T cells): maximum CD4+ T-cell response
Outline: as §1

| Molecule | Fold change (CD8+) vs. DMSO (CD8+ T cells) | Frequency (TNFα+ IFNγ+ CD8 T cells) (CD8+ T cells) | Immunogenic (yes/no) (CD8+ T cells) | Fold change (CD4+) vs. DMSO (CD4+ T cells) | Frequency (TNFα+ IFNγ+ CD4 T cells) (CD4+ T cells) |
| --- | --- | --- | --- | --- | --- |
| QLKKMVSKVRLRRARLPGRAHRSLPRPVESVPAQPSKLPRRAGSPGAVLSDLLRTPPRGACRLVRESPYGSWEGGGRRQSTKAWSGGYLTPAAHPPSSLPLSLELSVGQCSFSFVFINTNKGSYLVVDLRQSSTPVPI [AS11] | 4 | 0.033 | Yes | 69.02 | 0.45 |
| QLSVVTRDDYNSSELK [AS87, alternative splicing, BMP6] | 44.64 | 1.25 | Yes | 4.45 | 0.016 |
| QRDRDSIKVGLKIYRLRNGLKGL [AS76, alternative splicing, TLE4] | 6.15 | 0.54 | Yes | 224.35 | 0.34 |
| RHQENVHTVLVHGKVKGLFYI [AS125, alternative splicing, PRDM5] | 28.62 | 0.78 | Yes | 6.57 | 0.023 |
| RPGVFTDIL [FUS53, gene fusion PTPRG-> C3orf14] | 76.5 | 0.78 | Yes | 6.29 | 0.041 |
| RQLQQQLSSLSGPEGVPFLKLWCLDDLLSTLLGTCRCPSRAQF [FUS57, gene fusion MED12-> NLGN3] | 17.2 | 0.14 | Yes | 11.65 | 0.24 |
| RSISLHKSDPSLLSPN [AS25, alternative splicing, TBCEL] | 43.6 | 0.028 | Yes | 57.01 | 0.061 |
| SATTRSITGQDILSLEKERR [AS17, alternative splicing, DCC] | 14.05 | 0.13 | Yes | 7.078 | 0.028 |
| SEMVAHERYVFEATGNDSFRTLCLLMK [AS112, alternative splicing, CFAP54] | 35.03 | 0.062 | Yes | 7.92 | 0.012 |
| SGLLMNTLTVLILYFLY [FUS9, gene fusion EAF2-> SLC15A2] | 5.53 | 0.13 | Yes | 3.08 | 0.031 |
| SLLSLFPGKTVEITCLQHQKC [AS3, alternative splicing, BBS9] | 92.41 | 0.28 | Yes | 3.43 | 0.026 |
| SQKQPALKCLLRNNRP [AS84, alternative splicing, ANKRD36] | 162.14 | 4.54 | Yes | 10.66 | 0.019 |
| SRAPIKMSVLGQGHSRCLLHCLCLVAPMAFPVRLRVPCGG [AS16, alternative splicing, CAMSAP1] | 8200 | 0.82 | Yes | 15.062 | 0.011 |
| SSLQEHRKLLS [AS52, alternative splicing, PRDM5] | 12.72 | 0.18 | Yes | 1.9 | 0.012 |
| SSVTTHSSGNLRESPIYH [FUS32, gene fusion GANC-> CAPN3] | 12.04 | 0.018 | Yes | 3.08 | 0.008 |
| TAILFTRQQSKALPSLGITNRHGFWAGQGNTVMHGRDSDGKQVKGTVVILAQGAFHQ [AS109, alternative splicing, ADAMTS15] | 4.15 | 0.019 | Yes | 42.23 | 0.064 |
| TSTSPKFPVFIFRLVCWVRTELVLR [AS47, alternative splicing, NRG3] | 53.5 | 0.25 | Yes | 1.907 | 0.011 |
| TVPASQKLSCSLDPKHLRQFHL [AS30, alternative splicing, BLNK] | 13.86 | 0.082 | Yes | 2.23 | 0.012 |
| VAPSGLYYCG [FUS34, gene fusion CLN6-> CALML4] | 8.7 | 0.013 | Yes | 8.33 | 0.015 |
| VAPSQSRQEECWRHKMSW [AS42, alternative splicing, LARP1B] | 40 | 0.076 | Yes | 3.83 | 0.025 |
| VEDEEKKEAGTHFIHLTGTTVSAGVPEEMPATTLRREVF [AS108, alternative splicing, ACIN1] | 1406.07 | 12.5 | Yes | 179.31 | 1.06 |
| VHLDFSSAEMGFPHAAQANVELLGSSDLLT [AS116, alternative splicing, FCRL5] | 192.71 | 1.42 | Yes | 6.32 | 0.076 |
| VYYLYKNVAYKGSDID [AS86, alternative splicing, ATP10B] | 2.7 | 0.018 | Yes | 12.54 | 0.019 |
| WLLRTWERADSGL [AS123, alternative splicing, PCNX3] | 5.371 | 0.046 | No | 2.25 | 0.05 |
| WTRPEKQELNSSCCSLIL [AS120, alternative splicing, NCAM1] | 13.03 | 0.24 | Yes | 3.71 | 0.018 |
| YECTGCKTSFPHRSQS [FUS46, gene fusion GCNA-> LOC101059915] | 143.71 | 1.33 | Yes | 9.3 | 0.017 |
| YGVYVINQKGHSGCIWSMDGEGRLETAWPVWKRGRCPGKRR [AS15, alternative splicing, B4GALT2] | 290 | 0.029 | Yes | 2469.136 | 0.9 |
| RQREVVDLVSPREPSRDRRAGGGDLAARPTGRASVWLLGVSVCTAVCRVSCCAGVSCFLFTGEEGPGYACSESWNSEGRPKWEAIVERTCDMGPYNGMCLQG (alternative splicing, CTHRC1) RQREVVDLVSPREPSRDRRAGGGDLAARPTGRASVWLLGVSVCTAVCRVSCCAGVSCFLFTGEEGPGYACSESWNSEGRPKWEAIVERTCDMGPYNGMCLQG | 2700 | 0.27 | Yes | 57.613 | 0.072 |
| PPTAAASQVRSPTTATGTAAAGSLRAQTSSRATTESTRATGHSSAICAIVPSRAPITWRCT (gene fusion FOSB-> KLF2) PPTAAASQVRSPTTATGTAAAGSLRAQTSSRATTESTRATGHSSAICAIVPSRAPITWRCT | 37.46 | 0.056 | Yes | 6.84 | 0.002 |
| TQRLPGHKVSNSCMTGLVLTFTKRDPFHKPVTWCGQLADVRQCMFHSIRERAHPLQRALATLNFFFVSFYTALYLTHPLLTLQTWEVVVTVCFSCWELCVPCDVLRRTCRGQR (alternative splicing, BTBD3) TQRLPGHKVSNSCMTGLVLTFTKRDPFHKPVTWCGQLADVRQCMFHSIRERAHPLQRALATLNFFFVSFYTALYLTHPLLTLQTWEVVVTVCFSCWELCVPCDVLRRTCRGQR | 17.3 | 0.77 | Yes | 7.26 | 0.025 |
